Test results from paper PMC6148235, “A structural investigation of NRZ mediated apoptosis regulation in zebrafish” (Cell Death & Disease, 2018).
Residue numbers refer to the chain shown, from its start. Residues, ends and D or L forms follow the SMILES beside them. No end group written: not given here.

How the values were obtained:
NRZ R86A = biological target: T1, NRZ R86A (Danio rerio, UniProt Q8UWD5, R86A); assay: ITC affinity measurement of NRZ: BH3 motif interactions (mutant R86A); assay type: binding, zebrafish (Danio rerio); design: key to NRZ R86A KD: NB: no binding; details: MicroCal iTC200, 25 °C, 25 mM HEPES pH 7.5, 150 mM NaCl, 2 mM BME, protein 30 μM, peptide 300 μM, 19 injections of 2.0 μl, means of three replicates with standard error
T1 sequence (Q8UWD5 1-148 R86A): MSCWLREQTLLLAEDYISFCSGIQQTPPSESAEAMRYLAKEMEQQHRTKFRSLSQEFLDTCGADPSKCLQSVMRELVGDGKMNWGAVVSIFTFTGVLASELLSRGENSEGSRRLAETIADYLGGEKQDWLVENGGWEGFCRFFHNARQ
Protocol: (§1) NRZ mutants D79A and R86A were codon-optimized and synthesized (Genscript) and subsequently cloned into the pGEX-6P-3 vector (Invitrogen). Expression and purification were performed using the same protocol as for wild-type NRZ.
(§2) Binding affinities were measured by isothermal titration calorimetry (ITC) employing a MicroCal iTC200 system (GE Healthcare) at 25 °C using wt-NRZ, and NRZ mutants D79A and R86A in 25 mM HEPES, pH 7.5, 150 mM NaCl, 2 mM BME at a final concentration of 30 μM as previously described. BH3 motif peptide ligands were used at a concentration of 300 μM and titrated using 19 injections of 2.0 μl of ligand. All affinity measurements were performed in triplicate. Protein concentrations were measured using a Nanodrop UV spectrophotometer (Thermo Scientific, Scoresbury, Australia) at a wavelength of 280 nm. Peptide concentrations were calculated based on the dry peptide weight after synthesis. The zebrafish BH3-motif peptides used were commercially synthesized and were purified to a final purity of 95% (GenScript, Piscataway, New Jersey, US). zBim: […] (UniProt accession code B2KKY9, residues 117–142), zPuma: […] (accession code Q0GKC9, residues 123–148), zBik: […] (accession code Q5RGV6, residues 30–55), zBax: […] (accession code Q9I9N4, residues 52–79), zBid: […] (accession code Q0GKC5, residues 85–112), zBad: […] (accession code A7MCM4, 88–113 residues), zBmf: […] (accession code Q0GKC7, residues 89–114), zNoxa: […] (accession code Q0GKC8, residues 5–30), zBok: […] (accession code Q7T381, residues 60–85), zBeclin: […] (accession code F1RCP1, residues 102–127), zBcl-wav: […] (accession code D2Y5Q2, residues 42–67).

NRZ D79A = biological target: T2, NRZ D79A (Danio rerio, UniProt Q8UWD5, D79A); assay: ITC affinity measurement of NRZ: BH3 motif interactions (mutant D79A); assay type: binding, zebrafish (Danio rerio); design: key to NRZ D79A KD: NB: no binding; details: MicroCal iTC200, 25 °C, 25 mM HEPES pH 7.5, 150 mM NaCl, 2 mM BME, protein 30 μM, peptide 300 μM, 19 injections of 2.0 μl, means of three replicates with standard error
T2 sequence (Q8UWD5 1-148 D79A): T1 sequence (Q8UWD5 1-148 R86A) with D79A, A86R
Protocol: as §1, §2

wt-NRZ = biological target: T3, wt-NRZ (Danio rerio, UniProt Q8UWD5); assay: ITC affinity measurement of NRZ: BH3 motif interactions (wild type); assay type: binding, zebrafish (Danio rerio); details: MicroCal iTC200, 25 °C, 25 mM HEPES pH 7.5, 150 mM NaCl, 2 mM BME, NRZ 30 μM, peptide 300 μM, 19 injections of 2.0 μl, means of three replicates with standard error
T3 sequence (Q8UWD5 1-148): T1 sequence (Q8UWD5 1-148 R86A) with A86R
Protocol: as §2

[1] = biological target: NRZ R86A (zebrafish (Danio rerio)) (UniProt Q8UWD5); assay: ITC; MicroCal iTC200, 25 °C; NRZ (wt, D79A or R86A) at 30 μM in 25 mM HEPES pH 7.5, 150 mM NaCl, 2 mM BME; BH3 peptide at 300 μM titrated in 19 injections of 2.0 μl; triplicate
[2] = biological target: NRZ D79A (zebrafish (Danio rerio)) (UniProt Q8UWD5); assay: as above
[3] = biological target: NRZ (zebrafish pro-survival Bcl-2 protein), lacking the 28 C-terminal residues (zebrafish (Danio rerio)); assay: as above

Molecule: AQSVETLIGQKLQLIGDQFYQEHIMH [Bmf]
- NRZ R86A KD (NRZ R86A): NB
- NRZ D79A KD (NRZ D79A): NB
- WT NRZ KD (wt-NRZ): no detectable affinity and no affinity and NB

Molecule: CC[C@H](C)[C@H](NC(=O)[C@H](CCC(N)=O)NC(=O)[C@H](CCC(N)=O)NC(=O)[C@H](CC(C)C)NC(=O)[C@H](CS)NC(=O)[C@H](CCC(N)=O)NC(=O)[C@H](C)NC(=O)[C@H](CC(C)C)NC(=O)[C@H](CCCNC(=N)N)NC(=O)[C@H](CCCCN)NC(=O)[C@H](Cc1c[nH]cn1)NC(=O)[C@H](CO)NC(=O)[C@@H]1CCCN1C(=O)[C@H](CC(=O)O)NC(=O)[C@H](CS)NC(=O)[C@H](CC(C)C)NC(=O)[C@@H](N)CCC(=O)O)C(=O)NCC(=O)N[C@@H](CC(=O)O)C(=O)N[C@@H](CCC(=O)O)C(=O)N[C@@H](CC(C)C)C(=O)N[C@@H](CC(=O)O)C(=O)NCC(=O)N[C@@H](CC(N)=O)C(=O)N[C@@H](C)C(=O)N[C@@H](CCC(N)=O)C(=O)N[C@@H](CC(C)C)C(=O)N[C@@H](CCC(N)=O)C(=O)O [Bax] (H-ELCDPSHKRLAQCLQQIGDELDGNAQLQ-OH)
- Kd (NRZ R86A): 4600 ± 440 nM
- Kd (NRZ D79A): 264 ± 42 nM

Molecule: NMRVTQTIGRQLAQIGDEMDNKWRQE [Bik]
- Kd (NRZ R86A): 17 ± 3 nM
- Kd (NRZ D79A): 14 ± 3 nM

Molecule: EARAAREMAAELIRIADLLEQSVLSQAA [Bid]
- Kd (NRZ D79A): 220 ± 16 nM

Molecule: EQTAVVECAQQLRNIGDLLNWKYKLL [Noxa]
- Kd (NRZ R86A): 510 ± 41 nM
- Kd (NRZ D79A): 335 ± 31 nM

Molecule: DGGTMENLSRRLKVTSNLFDIMSGQT [Beclin]
- NRZ R86A KD (NRZ R86A): NB
- NRZ D79A KD (NRZ D79A): NB
- WT NRZ KD (wt-NRZ): no detectable affinity and NB
- WT NRZ KD (wt-NRZ; listed as Beclin-1): does not bind

Molecule: ALPPEMVVARELRRIGDEFNRLYCEA [Bim]
- Kd (NRZ R86A): 168 ± 8 nM
- Kd (NRZ D79A): 13 ± 4 nM

Molecule: EEQAVERVAVQLRTIGDEMNAVFLQR [Puma]
- Kd (NRZ R86A): 2770 ± 162 nM
- Kd (NRZ D79A): 117 ± 5 nM

Molecule: ALWAAKKYGQQLRRMSDEFDKGQMKR [Bad]
- Kd (NRZ R86A): 4800 ± 88 nM
- Kd (NRZ D79A): 3330 ± 41 nM

Molecule: LCPAPSRASAALRHAGDELLIRFPIF [Bcl-wav]
- NRZ R86A KD (NRZ R86A): ablated
- NRZ D79A KD (NRZ D79A): ablated
- Kd (wt-NRZ): 3570 ± 162 nM

Molecule: EEQAVERVAVQLRTIGDEMNAVFLQR [zPuma BH3 motif peptide]
- Kd [1]: 2770 nM
- Kd [2]: 117 nM

Molecule: NMRVTQTIGRQLAQIGDEMDNKWRQE [zBik BH3 motif peptide]
- Kd [3]: 12 nM
- Kd [1]: 17 nM
- Kd [2]: 14 nM

Molecule: EQTAVVECAQQLRNIGDLLNWKYKLL [zNoxa BH3 motif peptide]
- Kd [1]: 510 nM
- Kd [2]: 335 nM

Molecule: LCPAPSRASAALRHAGDELLIRFPIF [zBcl-wav BH3 motif peptide]
- Kd [3]: 3570 nM

Molecule: ELCDPSHKRLAQCLQQIGDELDGNAQLQ [zBax BH3 motif peptide]
- Kd [1]: 4600 nM
- Kd [2]: 264 nM

Molecule: EARAAREMAAELIRIADLLEQSVLSQAA [zBid BH3 motif peptide]
- Kd [3]: 409 nM
- Kd [2]: 220 nM

Molecule: ALPPEMVVARELRRIGDEFNRLYCEA [zBim BH3 motif peptide]
- Kd [3]: 41 nM
- Kd [1]: 168 nM
- Kd [2]: 13 nM

Molecule: ALWAAKKYGQQLRRMSDEFDKGQMKR [zBad BH3 motif peptide]
- Kd [1]: 4800 nM
- Kd [2]: 3330 nM
